The Kd is the concentration at which binding is half-saturated. A high value points to lower affinity.

The target of this assay is α-chymotrypsin (α-Chymo) (Bos taurus, UniProt P00766). Briefly: UV-Visible titration (Benesi-Hildebrand binding constant), supported by tryptophan fluorescence quenching (Ksv […] at […] K, static) and CD.

With `CNc1ccc2nc3ccc(N)cc3[s+]c2c1` [AzC, AzureC], the equilibrium dissociation constant (Kd) was 17.5 µM.

These data come from PMC9863556, “Influence of Green Synthesized Zinc Oxide Nanoparticles on Molecular Interaction and Comparative Binding of Azure Dye with Chymotrypsin: Novel Nano-Conjugate for Cancer Phototherapy” (Pharmaceutics, 2022).
